Reference: patent publication US20130022644A1, “NOVEL N-PHENYLACETAMIDE DERIVATIVES, WHICH INHIBIT THE ENZYME SOAT-1, AND PHARMACEUTICAL AND COSMETIC COMPOSITIONS CONTAINING THEM” (GALDERMA RESEACH & DEVELOPMENT, priority 2009, published 2013)

Columns and labels:
[1] = target: T1, enzyme ACAT-1 (Homo sapiens, UniProt P35610); assay: HepG2 NBD-cholesterol fluorescence test for inhibitory activity towards the enzyme ACAT-1 (SOAT-1); type: cell-based; details: HepG2 cells, NBD-cholesterol 1 μg/ml, incubation 6 hours at 37° C., fluorescence ex 490 nm / em 540 nm
T1 construct: endogenous in cells; host or cells: HepG2
T1 sequence (P35610 1-550): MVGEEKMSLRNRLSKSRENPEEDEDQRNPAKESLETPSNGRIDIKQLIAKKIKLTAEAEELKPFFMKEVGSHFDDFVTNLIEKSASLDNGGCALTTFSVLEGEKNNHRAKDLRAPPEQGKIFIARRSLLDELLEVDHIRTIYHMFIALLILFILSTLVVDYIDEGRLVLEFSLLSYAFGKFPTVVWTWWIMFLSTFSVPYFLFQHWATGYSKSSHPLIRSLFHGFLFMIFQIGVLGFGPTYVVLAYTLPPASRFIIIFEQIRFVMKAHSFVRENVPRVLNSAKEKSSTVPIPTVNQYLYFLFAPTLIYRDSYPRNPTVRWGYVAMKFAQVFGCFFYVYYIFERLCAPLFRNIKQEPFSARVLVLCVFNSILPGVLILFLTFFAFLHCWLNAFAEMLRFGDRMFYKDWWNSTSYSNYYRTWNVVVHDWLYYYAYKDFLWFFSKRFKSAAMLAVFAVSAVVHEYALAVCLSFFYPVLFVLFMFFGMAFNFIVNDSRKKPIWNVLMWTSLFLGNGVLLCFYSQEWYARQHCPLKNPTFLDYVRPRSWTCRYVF
Experimental: The compounds (1) according to the invention, and also the pharmaceutically acceptable salts, solvates and/or hydrates thereof, have inhibitory properties on the enzyme SOAT-1. This inhibitory activity on the enzyme SOAT-1 is measured according to a HepG2 primary enzymatic test, as described in Example 3.
The compounds of formula (I) according to the invention were subjected to a test for evaluating their inhibitory activity towards the enzyme ACAT-1, inspired by the following publication: “Identification of ACAT1- and ACAT2-specific inhibitors using a novel, cell based fluorescence assay: individual ACAT uniqueness”, J. Lipid. Res. (2004) vol. 45, pages 378-386.
The principle of this test is based on the use of NBD-cholesterol, a cholesterol analogue whose fluorescence depends on its environment. When this molecule is in a polar environment, it is weakly fluorescent, whereas in a non-polar environment, it is strongly fluorescent. […]
The method below is applied: HepG2 cells are incubated in the presence of NBD-cholesterol (1 μg/ml) and of the test compound of formula (I) in black transparent-bottomed 96-well plates, at a rate of 30 000 cells per well. […] After addition of 50 μl of lysis buffer (10 mM NaPO4, 1% Igepal), the plates are shaken for 5 minutes and the fluorescence is read (excitation at 490 nm, emission at 540 nm) on a Fusion machine (Perkin-Elmer). […]

SMILES: CCCC1(C)C(=O)N(CC(=O)Nc2c(C(C)C)cccc2C(C)C)C(=O)N1c1ccc(C)cc1 (centres unmarked) [Compound 1, N-(2,6-Diisopropylphenyl)-2-(4-methyl-2,5-dioxo-4-propyl-3-p-tolylimidazolidin-1-yl)acetamide]
- melting point: 186 °C
- IC50 [1]: 9 nM
